Data reported in patent US11459545B2, “Methods to enhance delivery and engraftment of stem cells including the identification of specific prostaglandin E2 receptors” (INDIANA UNIVERSITY RESEARCH AND TECHNOLOGY CORPORATION, priority 2009, dated 2022).

Tested on: CD34+ cells from cord blood
Assay: CXCR4 expression on CD34+ cells after ex vivo pulse exposure (flow cytometry)
Assay type: cell-based, human
Details: for up regulation of CXCR4 on the surface of CD34+ cells: cord blood samples, ex vivo pulse exposure, cytometry histograms compared to isotype control (FIG. 1)
Protocol: Un-manipulated hematopoietic grafts or purified hematopoietic stem cell populations (e.g., SKL cells in mice or CD34^+ cells in humans) are incubated with an EP4 specific agonist: 5-[(1E,3R)-4,4-difluoro-3-hydroxy-4-phenyl-1-buten-1-yl]-1-[6-(2H-tetrazol-5R-yl)hexyl]-2-pyrrolidinone (i.e. L-902,688), on ice or at room temperature at concentrations of 0.001-10 microMolar agonist per 1-10 million cells in 1 ml of culture medium, e.g. IMDM, for 15 minutes-6 hrs. After incubation, the cells are washed 3 times in sterile media or saline and administered to recipients, intravenously. L-902,688 was a generous gift from Merck Frosst (Kirkland, Canada) (Young, et al., 2004).
Referring now to FIG. 1. This graph illustrates that treatment of cells with EP4 agonist ex vivo specifically up regulates CXCR4 expression on CD34^+ cells. […] The bar graph indicator data measured from such experiments graphed as a function of different compounds used dmPGE2, Butaprostone, sulprostone and EP4.
Referring now to FIG. 2. This graph illustrates that signaling via the EP4 receptor is responsible for up regulation of CXCR4 expression. […] Treatment with EP4 agonist ex vivo up regulates CXCR4 expression on CD34^+ cells. […] In the bar chart this effort is normalized to 100%. […] The fact that up regulation of CXCR4 by an EP4 selective agonist is blocked by a selective EP4 antagonist, but not by EP1, 2, 3, antagonist, provides additional evidence that up regulation is mediated through the EP4 receptor.

SMILES	up regulation of CXCR4 on the surface of CD34+ cells	up regulation of CXCR4 expression on CD34+ cells (ex vivo treatment, combined data for 8 cord blood samples (FIG. 2))
O=C1CC[C@H](/C=C/[C@@H](O)C(F)(F)c2ccccc2)N1CCCCCCc1nn[nH]n1 [EP4 agonist, 5-[(1E,3R)-4,4-difluoro-3-hydroxy-4-phenyl-1-buten-1-yl]-1-[6-(2H-tetrazol-5R-yl)hexyl]-2-pyrrolidinone]	significant up regulation	about 3 fold
CCCCC(C)(C)[C@H](O)/C=C/[C@H]1[C@H](O)CC(=O)[C@@H]1C/C=C\CCCC(=O)O [dmPGE2, 16,16 dimethylprostaglandin E2]	significant up regulation	–
